Our source for the IC50 values is PMC10688161 (ACS Omega, 2023).

A word on the IC50: it is the midpoint of a concentration-inhibition curve.

This assay has as its target SARS-CoV-2 M^pro (3CL^pro), MBP-tagged 3CL protease (Severe acute respiratory syndrome coronavirus 2, UniProt P0DTD1). Put plainly: biochemical.

In the case of `O=C(O)c1cc(C(=O)O)c2c(n1)C(=O)C(=O)c1cc(C(=O)O)[nH]c1-2` [PQQ, 4,5-dioxo-4,5-dihydro-1H-pyrrolo[2,3-f] quinoline-2,7,9-tricarboxylic acid], 2.8 µM corresponded to half-maximal inhibition (IC50).
